Reference: patent publication US8501750B2, “Heterocyclic compound and use thereof” (Takeda Pharmaceutical Company Limited, priority 2007, dated 2013)
Where a name gives a salt, the structure may show the parent alone. Read-outs that look alike come from different tables or passages of the source.

Legend:
PPARγ = PPARγ (Homo sapiens (Human), UniProt P37231); assay: PPARγ activating action (luciferase reporter in PPARγ:RXRα:4ERPP/CHO-K1 cells); type: cell-based; settings: CHO-K1, 24 h, read-out: PPARγ activating action (activation % (1 μM))
Chain of PPARγ (P37231 29-505): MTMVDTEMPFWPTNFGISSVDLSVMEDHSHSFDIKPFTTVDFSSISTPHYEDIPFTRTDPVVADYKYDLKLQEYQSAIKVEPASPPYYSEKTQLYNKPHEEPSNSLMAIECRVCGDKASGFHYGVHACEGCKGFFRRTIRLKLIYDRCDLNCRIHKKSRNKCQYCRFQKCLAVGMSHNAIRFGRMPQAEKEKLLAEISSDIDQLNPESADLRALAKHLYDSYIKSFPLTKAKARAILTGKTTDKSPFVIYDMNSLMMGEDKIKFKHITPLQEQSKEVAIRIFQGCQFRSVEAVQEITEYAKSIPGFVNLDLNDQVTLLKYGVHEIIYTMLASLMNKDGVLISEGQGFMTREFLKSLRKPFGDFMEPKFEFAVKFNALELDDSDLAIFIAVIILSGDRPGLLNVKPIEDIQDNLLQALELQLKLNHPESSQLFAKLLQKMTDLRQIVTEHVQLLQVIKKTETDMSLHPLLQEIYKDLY
Chain of PPARγ (P19793 whole entry partner): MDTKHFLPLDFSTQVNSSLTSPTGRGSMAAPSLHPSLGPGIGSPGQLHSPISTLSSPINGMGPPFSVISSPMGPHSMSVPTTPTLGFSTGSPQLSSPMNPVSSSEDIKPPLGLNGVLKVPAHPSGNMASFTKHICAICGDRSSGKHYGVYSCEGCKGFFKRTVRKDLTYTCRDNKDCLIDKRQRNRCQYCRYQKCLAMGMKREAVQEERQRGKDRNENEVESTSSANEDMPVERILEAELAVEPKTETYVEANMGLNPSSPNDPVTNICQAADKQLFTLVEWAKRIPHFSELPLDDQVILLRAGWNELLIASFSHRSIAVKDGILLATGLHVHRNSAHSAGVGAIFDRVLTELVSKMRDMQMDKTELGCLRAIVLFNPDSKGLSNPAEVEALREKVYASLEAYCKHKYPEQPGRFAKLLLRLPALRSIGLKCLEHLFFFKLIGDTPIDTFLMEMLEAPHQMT
Description: Then the medium was removed from the 96-well half area white plate, 45 μl of Ham's F12 medium containing 0.1% fatty acid-free bovine serum albumin (BSA) and 5 μl of test compound were added, and the cells were cultured in a CO2 gas incubator at 37° C. for 1 day. The medium was removed and 20 μl of PicaGene 7.5 [manufactured by Dainippon Ink and Chemicals Corporation, Japan] diluted 2-fold with HBSS (HANKS' BALANCED SALT SOLUTION) [manufactured by BIO WHITTAKER, USA] was added. After stirring, the luciferase activity was determined using 1420 ARVO Multilabel Counter [manufactured by PerkinElmer, USA]. […] A CHO-K1 cell cultured in a 150 cm^2 cell culture flask [manufactured by Corning Costar Corporation, USA] containing Ham's F12 medium [manufactured by INVITROGEN, USA] supplemented with 10% fetal bovine serum [manufactured by INVITROGEN, USA] was scraped by treating with 0.5 g/L trypsin-0.2 g/L EDTA (ethylenediaminetetraacetic acid) [manufactured by Life Technologies, Inc., USA], and then the cell was washed with PBS (Phosphate-buffered saline) [manufactured by INVITROGEN, USA], centrifuged (1000 rpm, 5 minutes) and suspended in PBS. Subsequently, DNA was introduced into the cell under the conditions shown below using GENE PULSER [manufactured by Bio-Rad Laboratories, USA]. […] Subsequently, the cell was transferred into a F12 medium containing 10% fetal bovine serum and cultured for 24 hours, and then the cell was scraped again and centrifuged, and then suspended in Ham's F12 medium containing 10% fetal bovine serum supplemented with 500 μg/ml of Geneticin [manufactured by INVITROGEN, USA] and 250 μg/ml of Zeocin [manufactured by INVITROGEN, USA]. The obtained suspension was diluted to the density of 10^4 cells/ml and inoculated in a 96-well plate [manufactured by Corning Costar Corporation, USA], which was cultured in a CO2 gas incubator at 37° C., whereby obtaining a Geneticin- and Zeocin-resistant transformant.

AT1 receptor = AT1 receptor (Homo sapiens (Human), UniProt P30556); assay: AT1 receptor binding inhibitory action
Chain of AT1 receptor (P30556 whole entry): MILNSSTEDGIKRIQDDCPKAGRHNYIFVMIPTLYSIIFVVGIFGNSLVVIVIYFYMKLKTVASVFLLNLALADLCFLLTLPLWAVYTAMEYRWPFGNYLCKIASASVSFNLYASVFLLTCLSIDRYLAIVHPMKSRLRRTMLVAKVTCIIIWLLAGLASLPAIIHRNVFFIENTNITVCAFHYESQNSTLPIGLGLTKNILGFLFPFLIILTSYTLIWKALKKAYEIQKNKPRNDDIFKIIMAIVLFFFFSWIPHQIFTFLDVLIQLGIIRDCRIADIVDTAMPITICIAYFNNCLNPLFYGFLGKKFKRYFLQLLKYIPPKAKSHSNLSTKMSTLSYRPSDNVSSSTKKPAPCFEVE

[1] = test compound 1 μM, luciferase activity relative to control compound X (1 μM) = 100%, non-administration group = 0%

Row | Structure (SMILES) | activation at 1 µM (PPARγ; [1]) [%] | IC50 (AT1 receptor) [nM] | activation at 1 µM (PPARγ) [%]
1 | CC(C)(C)C(=O)Cn1c(=O)c2cc(C3CC3)sc2n(Cc2ccc(-c3ccccc3-c3noc(=O)[nH]3)cc2)c1=O [Ex. 186, 6-cyclopropyl-3-(3,3-dimethyl-2-oxobutyl)-1-{[2′-(5-oxo-4,5-dihydro-1,2,4-oxadiazol-3-yl)biphenyl-4-yl]methyl}thieno[2,3-d]pyrimidine-2,4(1H,3H)-dione] | 52 | 1.2 | –
2 | CCc1cc2c(=O)n(CC(=O)c3ccc(OC)cc3)c(=O)n(Cc3ccc(-c4ccccc4-c4noc(O)n4)cc3OC)c2s1 [Ex. 192, 6-ethyl-1-{[3-methoxy-2′-(5-oxo-4,5-dihydro-1,2,4-oxadiazol-3-yl)biphenyl-4-yl]methyl}-3-[2-(4-methoxyphenyl)-2-oxoethyl]thieno[2,3-d]pyrimidine-2,4(1H,3H)-dione potassium salt] | – | 2.3 | 49
3 | CCc1cc2c(=O)n(CC(=O)c3ccc(OC)cc3)c(=O)n(Cc3ccc(-c4ccccc4-c4noc(O)n4)cc3Br)c2s1 [Ex. 194, 1-{[3-bromo-2′-(5-oxo-4,5-dihydro-1,2,4-oxadiazol-3-yl)biphenyl-4-yl]methyl}-6-ethyl-3-[2-(4-methoxyphenyl)-2-oxoethyl]thieno[2,3-d]pyrimidine-2,4(1H,3H)-dione potassium salt] | – | 1.7 | 34
4 | CCc1cc2c(=O)n(CC(=O)c3ccc(OC)cc3)c(=O)n(Cc3c(F)cc(-c4ccccc4-c4noc(=O)[nH]4)cc3F)c2s1 [Ex. 197, 1-{[3,5-difluoro-2′-(5-oxo-4,5-dihydro-1,2,4-oxadiazol-3-yl)biphenyl-4-yl]methyl}-6-ethyl-3-[2-(4-methoxyphenyl)-2-oxoethyl]thieno[2,3-d]pyrimidine-2,4(1H,3H)-dione] | 67 | 1.4 | –
5 | CCc1cc2c(=O)n(CC(=O)c3ccc(OC)cc3)c(=O)n(Cc3ccc(-c4ccc(F)cc4-c4noc(=O)[nH]4)cc3)c2s1 [Ex. 198, 6-ethyl-1-{[4′-fluoro-2′-(5-oxo-4,5-dihydro-1,2,4-oxadiazol-3-yl)biphenyl-4-yl]methyl}-3-[2-(4-methoxyphenyl)-2-oxoethyl]thieno[2,3-d]pyrimidine-2,4(1H,3H)-dione] | 36 | 1.5 | –
6 | CCc1cc2c(=O)n(CC(=O)c3ccc(OC)cc3)c(=O)n(Cc3ccc(-c4cc(F)ccc4-c4noc(=O)[nH]4)cc3)c2s1 [Ex. 203, 6-ethyl-1-{[5′-fluoro-2′-(5-oxo-4,5-dihydro-1,2,4-oxadiazol-3-yl)biphenyl-4-yl]methyl}-3-[2-(4-methoxyphenyl)-2-oxoethyl]thieno[2,3-d]pyrimidine-2,4(1H,3H)-dione] | 28 | 1.8 | –
7 | CCc1cc2c(=O)n(CC(=O)C3CCCCC3)c(=O)n(Cc3ccc(-c4ccccc4-c4noc(=O)[nH]4)cc3)c2s1 [Ex. 205, 3-(2-cyclohexyl-2-oxoethyl)-6-ethyl-1-{[2′-(5-oxo-4,5-dihydro-1,2,4-oxadiazol-3-yl)biphenyl-4-yl]methyl}thieno[2,3-d]pyrimidine-2,4(1H,3H)-dione] | 69 | 1.5 | –
8 | CCc1cc2c(=O)n(CC(=O)c3ccccc3)c(=O)n(Cc3ccc(-c4ccccc4-c4noc(=O)[nH]4)cc3)c2s1 [Ex. 209, 6-ethyl-1-{[2′-(5-oxo-4,5-dihydro-1,2,4-oxadiazol-3-yl)biphenyl-4-yl]methyl}-3-(2-oxo-2-phenylethyl)thieno[2,3-d]pyrimidine-2,4(1H,3H)-dione] | 66 | 1.4 | –
9 | CCO/N=C(/Cn1c(=O)c2cc(CC)sc2n(Cc2ccc(-c3ccccc3-c3noc(=O)[nH]3)cc2)c1=O)c1ccc(OC)cc1 [Ex. 210, 3-[2-(ethoxyimino)-2-(4-methoxyphenyl)ethyl]-6-ethyl-1-{[2′-(5-oxo-4,5-dihydro-1,2,4-oxadiazol-3-yl)biphenyl-4-yl]methyl}thieno[2,3-d]pyrimidine-2,4(1H,3H)-dione] | 31 | 1.6 | –
